This is an account of results in patent US11629123B2, “Selenopsammaplin A and derivative thereof, preparation method therefor, and composition for preventing and treating cancer, containing same as active ingredients” (priority 2017, dated 2023).

The subject of series [1] is colorectal cancer cell line HCT116. In words: cells. The format is cell-based. On the procedure: (§1) To confirm the in vitro growth inhibitory efficacy of the samples prepared in Examples 1 to 28 against human lung cancer and colorectal cancer cell lines, the experiments were performed as follows by applying the method described in the literature (Lee S K et al ([…]) Chem Biol Interact 115:215-28). A human lung cancer cell line A549 and a colorectal cancer cell line HCT116 were acquired from the American Type Culture Collection (ATCC, Manassas, Va., USA) and used.
(§2) A549, HCT116 cells were subcultured once or twice weekly under conditions of 37° C. and 5% CO2 using Roswell Park Memorial Institute (RPMI) Medium 1640 (RPMI 1640) containing 10% heat-inactivated Fetal Bovine Serum (FBS), 100 units/mL penicillin, 100 μg/mL streptomycin, and 250 ng/mL amphotericin B. All cells were thawed from liquid nitrogen, subcultured three times or more, and then used in the experiment.
(§3) The effects of the compounds obtained in Examples 1 to 28 on cell growth were measured by a sulforhodamine B (SRB) method (Lee et al (1998) Chem Biol Interact 115: 215-28).
(§4) Specifically, the human lung cancer and colon cancer cell lines used in the present invention were subcultured in a RPMI medium containing 10% FBS, 1% PSF, and the like, 10 μl of a sample dissolved in 10% DMSO and 190 μl (5×10^4 cells/ml) of the cell suspension were placed in each well of a 96-well plate. 190 μl of the cell suspension was placed in at least 16 wells, cultured for 30 minutes, and used as a negative control (zero-day control) before the experiment. The cultured cells were fixed with 10% trichloroacetic acid (TCA) and then stained with an SRB solution, the staining solution was dissolved with 10 mM Tris-base, and absorbance was measured at 515 nm. Using the cell culture in 10% DMSO as a control, cell viability according to the treatment with each test sample was measured using the following Equation 1. % Cell viability=(OD(sample)−OD(0-day))/(OD(10% DMSO)−OD(0-day))×100 [Equation 1]
(§5) When the control in which the sample was not treated was defined as 100%, the value of the sample treatment group was shown as a percentage with respect to the control, and each test sample treatment was determined by the mean value±SEM of the duplicate or triplicate test. The IC50 value is the concentration of the test sample for 50% viability.

Series [2] relates to human lung cancer cell line A549. Description: cells. The format is cell-based. On the procedure: as §1, §2, §3, §4, §5
Setting [3] is: Homo sapiens, HCT-116, read-out: HCT116-LC50, Table 2, SRB, concentration for 50% viability.
The mark [4] stands for this setting: Homo sapiens, HCT-116, read-out: HCT116-LC50, Table 3, SRB, concentration for 50% viability.
Setting [5] is: Homo sapiens, A549, read-out: A549-LC50, Table 2, SRB, concentration for 50% viability.
[6] abbreviates: Homo sapiens, A549, read-out: A549-LC50, Table 3, SRB, concentration for 50% viability.
[7] abbreviates: Homo sapiens, HCT-116, read-out: HCT116-LC50.
The mark [8] stands for this setting: Homo sapiens, A549, read-out: A549-LC50.

Structures are written as SMILES. Where two headings read alike, the source gives them in different places.

As to `COc1cc([C@@H]2c3cc4c(cc3[C@@H](O[C@@H]3O[C@@H]5CO[C@@H](C)O[C@H]5[C@H](O)[C@H]3O)[C@H]3COC(=O)[C@H]23)OCO4)cc(OC)c1O` [Etoposide, reference compound], the CC50 turned out to be 900 nM in series [1] (setting [3]), 610 nM in series [1] (setting [4]), 420 nM in series [2] (setting [5]) and 710 nM in series [2] (setting [6]).

With `O=C(NCCSSCCNC(=O)/C(Cc1ccc(O)c(Br)c1)=N/O)/C(Cc1ccc(O)c(Br)c1)=N/O` [Psammaplin A], the CC50 turned out to be 610 nM in series [1] (Table 2, SRB, concentration for 50% viability, read-out: HCT116-LC50); 610 nM in series [1] (Table 3, SRB, concentration for 50% viability, read-out: HCT116-LC50); 1760 nM in series [2] (Table 2, SRB, concentration for 50% viability, read-out: A549-LC50); 1760 nM in series [2] (Table 3, SRB, concentration for 50% viability, read-out: A549-LC50).

Turning to `O=C(NCC[Se][Se]CCNC(=O)/C(Cc1ccc(F)cc1)=N/O)/C(Cc1ccc(F)cc1)=N/O` [SSM-5, (2E,2′E)-N,N′-(diselanediylbis(ethane-2,1-diyl))bis(3-(4-fluorophenyl)-2-(hydroxyimino)propanamide)], the CC50 in series [1] (setting [3]) is 110 nM; in series [2] (setting [5]), 100 nM.

Take `O=C(NCC[Se][Se]CCNC(=O)/C(Cc1ccc(Cl)cc1)=N/O)/C(Cc1ccc(Cl)cc1)=N/O` [SSM-6, (2E,2′E)-N,N′-(diselanediylbis(ethane-2,1-diyl))bis(3-(4-chlorophenyl)-2-(hydroxyimino)propanamide)]: the CC50 in series [1] (setting [7]) is 280 nM; in series [2] (setting [8]), 250 nM.

In the case of `O=C(NCC[Se][Se]CCNC(=O)/C(Cc1ccc(Br)cc1)=N/O)/C(Cc1ccc(Br)cc1)=N/O` [SSM-7, (2E,2′E)-N,N′-(diselanediylbis(ethane-2,1-diyl))bis(3-(4-bromophenyl)-2-(hydroxyimino)propanamide)], the CC50 was 300 nM in series [1] (setting [3]) and 320 nM in series [2] (setting [5]).

`O=C(NCC[Se][Se]CCNC(=O)/C(Cc1ccc(F)c(F)c1)=N/O)/C(Cc1ccc(F)c(F)c1)=N/O` [SSM-8, (2E,2′E)-N,N′-(diselanediylbis(ethane-2,1-diyl))bis(3-(3,4-difluorophenyl)-2-(hydroxyimino)propanamide)]: the CC50 in series [1] (setting [7]) was 190 nM; in series [2] (setting [8]), 200 nM.

For the compound `O=C(NCC[Se][Se]CCNC(=O)/C(Cc1ccc(Cl)c(Cl)c1)=N/O)/C(Cc1ccc(Cl)c(Cl)c1)=N/O` [SSM-9, (2E,2′E)-N,N′-(diselanediylbis(ethane-2,1-diyl))bis(3-(3,4-dichlorophenyl)-2-(hydroxyimino)propanamide)], the CC50 in series [1] (setting [7]) is 520 nM; in series [2] (setting [8]), 280 nM.

Consider `O=C(NCC[Se][Se]CCNC(=O)/C(Cc1ccc(OCc2ccccc2)cc1)=N/O)/C(Cc1ccc(OCc2ccccc2)cc1)=N/O` [SSM-11, (2E,2′E)-N,N′-(diselanediylbis(ethane-2,1-diyl))bis(3-(4-(benzyloxy)phenyl)-2-(hydroxyimino)propanamide)], for which the CC50 was determined as 100 nM in series [1] (setting [3]) and 140 nM in series [2] (setting [5]).

As for `CC(C)(C)c1ccc(C/C(=N\O)C(=O)NCC[Se][Se]CCNC(=O)/C(Cc2ccc(C(C)(C)C)cc2)=N/O)cc1` [SSM-13, (2E,2′E)-N,N′-(diselanediylbis(ethane-2,1-diyl))bis(3-(4-(tert-butyl)phenyl)-2-(hydroxyimino)propanamide)], the CC50 in series [1] (setting [7]) was determined as 130 nM; in series [2] (setting [8]), 100 nM.

Consider `O=C(NCC[Se][Se]CCNC(=O)/C(Cc1ccc2ccccc2c1)=N/O)/C(Cc1ccc2ccccc2c1)=N/O` [SSM-14, (2E,2′E)-N,N′-(diselanediylbis(ethane-2,1-diyl))bis(2-(hydroxyimino)-3-(naphthalen-2-yl)propanamide)], for which the results for the CC50 in series [1] (setting [3]) and in series [2] (setting [5]) were 120 nM and 380 nM, respectively.

Turning to `O=C(NCC[Se]Sc1ccccc1)/C(Cc1ccc(O)c(Br)c1)=N/O` [SSM-15, (E)-3-(3-bromo-4-hydroxyphenyl)-2-(hydroxyimino)-N-(2-((phenylthio)selanyl)ethyl)propanamide], the results for the CC50 in series [1] (setting [4]) and in series [2] (setting [6]) were 10 nM and 100 nM, respectively.

For the compound `O=C(NCC[Se]Sc1ccccc1)/C(Cc1ccc(O)c(Cl)c1)=N/O` [SSM-16, (E)-3-(3-chloro-4-hydroxyphenyl)-2-(hydroxyimino)-N-(2-((phenylthio)selanyl)ethyl)propanamide], the CC50 in series [1] (setting [4]) amounted to 90 nM; in series [2] (setting [6]), 110 nM.

On to `O=C(NCC[Se]Sc1ccccc1)/C(Cc1ccc(O)c(F)c1)=N/O` [SSM-17, (E)-3-(3-fluoro-4-hydroxyphenyl)-2-(hydroxyimino)-N-(2-((phenylthio)selanyl)ethyl)propanamide], for which the CC50 in series [1] (setting [4]) came out at 200 nM; in series [2] (setting [6]), 290 nM.

Regarding `O=C(NCC[Se]Sc1ccccc1)/C(Cc1ccccc1)=N/O` [SSM-18, (E)-2-(hydroxyimino)-3-phenyl-N-(2-((phenylthio)selanyl)ethyl)propanamide], the CC50 in series [1] (setting [4]) is 130 nM; in series [2] (setting [6]) it was 280 nM.

With `O=C(NCC[Se]Sc1ccccc1)/C(Cc1ccc(F)cc1)=N/O` [SSM-19, (E)-3-(4-fluorophenyl)-2-(hydroxyimino)-N-(2-((phenylthio)selanyl)ethyl)propanamide], the CC50 in series [1] (setting [4]) is 330 nM; in series [2] (setting [6]) it was 490 nM.

For the compound `O=C(NCC[Se]Sc1ccccc1)/C(Cc1ccc(Cl)cc1)=N/O` [SSM-20, (E)-3-(4-chlorophenyl)-2-(hydroxyimino)-N-(2-((phenylthio)selanyl)ethyl)propanamide], the values for the CC50 in series [1] (setting [7]) and in series [2] (setting [8]) were 330 nM and 490 nM, respectively.

With `O=C(NCC[Se]Sc1ccccc1)/C(Cc1ccc(Br)cc1)=N/O` [SSM-21, (E)-3-(4-bromophenyl)-2-(hydroxyimino)-N-(2-((phenylthio)selanyl)ethyl)propanamide], the CC50 in series [1] (setting [4]) was 180 nM; in series [2] (setting [6]), 510 nM.

In the case of `O=C(NCC[Se]Sc1ccccc1)/C(Cc1ccc(F)c(F)c1)=N/O` [SSM-22, (E)-3-(3,4-difluorophenyl)-2-(hydroxyimino)-N-(2-((phenylthio)selanyl)ethyl)propanamide], the CC50 in series [1] (setting [7]) came to 310 nM; in series [2] (setting [8]), 480 nM.

As for `O=C(NCC[Se]Sc1ccccc1)/C(Cc1ccc(Cl)c(Cl)c1)=N/O` [SSM-23, (E)-3-(3,4-dichlorophenyl)-2-(hydroxyimino)-N-(2-((phenylthio)selanyl)ethyl)propanamide], the CC50 amounted to 50 nM in series [1] (setting [7]) and 280 nM in series [2] (setting [8]).

`CCOc1ccc(C/C(=N\O)C(=O)NCC[Se]Sc2ccccc2)cc1` [SSM-24, (E)-3-(4-ethoxyphenyl)-2-(hydroxyimino)-N-(2-((phenylthio)selanyl)ethyl)propanamide]: the CC50 in series [1] (setting [4]) is 130 nM; in series [2] (setting [6]) it was 330 nM.

On to `O=C(NCC[Se]Sc1ccccc1)/C(Cc1ccc(OCc2ccccc2)cc1)=N/O` [SSM-25, (E)-3-(4-(benzyloxy)phenyl)-2-(hydroxyimino)-N-(2-((phenylthio)selanyl)ethyl)propanamide], for which the CC50 in series [1] (setting [4]) was 80 nM; in series [2] (setting [6]), 180 nM.

Take `O=C(NCC[Se]Sc1ccccc1)/C(Cc1ccc([N+](=O)[O-])cc1)=N/O` [SSM-26, (E)-2-(hydroxyimino)-3-(4-nitrophenyl)-N-(2-((phenylthio)selanyl)ethyl)propanamide]: the CC50 in series [1] (setting [7]) and in series [2] (setting [8]) was 120 nM each time.

On to `O=C(NCC[Se]Sc1ccccc1)/C(Cc1ccc2ccccc2c1)=N/O` [SSM-28, (E)-2-(hydroxyimino)-3-(naphthalen-2-yl)-N-(2-((phenylthio)selanyl)ethyl)propanamide], for which the CC50 was determined as 20 nM in series [1] (setting [4]) and 120 nM in series [2] (setting [6]).
